Results taken from paper PMC11157491, “Novel Alaninamide Derivatives with Drug-like Potential for Development as Antiseizure and Antinociceptive Therapies—In Vitro and In Vivo Characterization” (ACS Chemical Neuroscience, 2024).

Assays:
[1] = target: T1, TRPV1 (VR1) (h) (Homo sapiens, UniProt Q8NER1); assay: TRPV1 antagonist effect functional assay; type: cell-based; details: 10 μM, human recombinant CHO cells; read-out: % inhibition of control agonist response
T1 construct: Eurofins (contract assay)
T1 sequence (Q8NER1 whole entry): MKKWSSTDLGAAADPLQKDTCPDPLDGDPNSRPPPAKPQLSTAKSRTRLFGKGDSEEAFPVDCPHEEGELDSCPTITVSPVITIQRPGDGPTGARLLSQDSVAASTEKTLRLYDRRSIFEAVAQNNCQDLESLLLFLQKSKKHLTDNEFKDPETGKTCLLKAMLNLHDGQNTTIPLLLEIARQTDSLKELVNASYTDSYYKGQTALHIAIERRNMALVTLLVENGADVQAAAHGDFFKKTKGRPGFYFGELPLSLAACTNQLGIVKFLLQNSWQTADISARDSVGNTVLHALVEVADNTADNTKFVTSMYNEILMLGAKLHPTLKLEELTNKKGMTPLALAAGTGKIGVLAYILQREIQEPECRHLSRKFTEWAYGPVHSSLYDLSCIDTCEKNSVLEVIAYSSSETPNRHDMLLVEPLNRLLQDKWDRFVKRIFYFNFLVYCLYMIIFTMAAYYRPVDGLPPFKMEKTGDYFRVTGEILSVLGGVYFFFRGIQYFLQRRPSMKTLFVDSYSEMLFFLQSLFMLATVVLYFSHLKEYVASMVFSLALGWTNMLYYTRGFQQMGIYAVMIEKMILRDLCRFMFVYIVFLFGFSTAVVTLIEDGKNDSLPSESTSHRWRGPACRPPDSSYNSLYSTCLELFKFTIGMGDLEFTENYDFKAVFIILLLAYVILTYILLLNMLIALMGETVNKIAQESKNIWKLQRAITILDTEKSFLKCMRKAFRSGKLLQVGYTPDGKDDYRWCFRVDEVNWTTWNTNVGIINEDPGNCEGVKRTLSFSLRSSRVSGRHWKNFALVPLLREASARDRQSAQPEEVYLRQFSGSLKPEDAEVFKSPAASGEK
Procedure: For many years, the TRPV1 channel, permeable to calcium and sodium ions, has been recognized as a promising molecular target for novel analgesics.[19] […] Therefore, bearing in mind the involvement of TRPV1 in pain sensation and potentially in seizure induction, in the next step of the in vitro studies, the TRPV1 antagonist activity was determined for all compounds obtained (Table 6).
(§1) Binding/functional studies were carried out commercially in Eurofins Laboratories (Poitiers, France) and Eurofins Panlabs Discovery Services Taiwan, Ltd. (New Taipei City, Taiwan) using testing procedures that were reported previously (for details, see Table S2).
(§2) Table S2. Radioligand binding and functional assays. […]
TRPV1 (VR1) (h) (antagonist effect) […]
(§3) Assays were performed commercially in Eurofins Laboratories ( Poitiers, France) or Eurofins Panlabs Discovery Services
(§4) Taiwan, Ltd. (New Taipei City, Taiwan).

[2] = PAMPA passive permeability; type: in vitro ADME; details: precoated PAMPA Plate System; for Papp: read-out: PAMPA—Pe ± SD
Source text: The precoated parallel artificial membrane permeability assay (PAMPA) was used to determine the passive mechanism of permeability.

[3] = target: CYP2D6 (Homo sapiens, UniProt P10635); details: 1 μM
Sequence of CYP2D6 (P10635 whole entry): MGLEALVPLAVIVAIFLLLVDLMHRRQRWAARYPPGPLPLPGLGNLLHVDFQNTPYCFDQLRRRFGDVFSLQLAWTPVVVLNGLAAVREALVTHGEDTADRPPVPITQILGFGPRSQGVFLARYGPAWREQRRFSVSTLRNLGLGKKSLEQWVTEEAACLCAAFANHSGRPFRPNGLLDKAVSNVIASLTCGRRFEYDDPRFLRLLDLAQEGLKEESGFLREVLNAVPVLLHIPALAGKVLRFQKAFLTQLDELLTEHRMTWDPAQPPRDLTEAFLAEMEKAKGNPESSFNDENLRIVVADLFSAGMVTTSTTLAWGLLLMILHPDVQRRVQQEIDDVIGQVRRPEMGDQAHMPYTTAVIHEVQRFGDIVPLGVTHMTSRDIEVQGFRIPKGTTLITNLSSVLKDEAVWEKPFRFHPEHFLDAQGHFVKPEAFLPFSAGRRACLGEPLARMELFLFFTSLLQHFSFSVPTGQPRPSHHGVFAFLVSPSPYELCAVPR

[4] = system: mice; assay: 6 Hz (44 mA) model of pharmacoresistant seizures; type: in vivo; details: Mus musculus, ip, pretreatment 0.5 h
Procedure: Based on the promising pharmacological data for 26 and 28, and especially potent protection in the 6 Hz (32 mA) seizure model, both compounds were tested subsequently in the 6 Hz seizure model, applying a higher current intensity of 44 mA (Table 3). Importantly, this test is recognized as one of the key animal models of pharmacoresistant seizures, utilized in the early stage of new ASMs’ development.
In the initial screening studies, four mice per group were randomly assigned to each experimental group (each mouse was used only once). To evaluate the ED50 or TD50 values, four groups consisting of eight animals were injected with various doses of tested compounds. The protective indexes (PIs) for the compounds investigated and reference ASMs were calculated by dividing the TD50 value, as determined in the chimney test, by the respective ED50 value, as determined in the MES, scPTZ, or 6 Hz (32 or 44 mA) tests (PI = TD50/ED50). The PIs are a measure of the potential therapeutic window of the tested agent.
All substances were suspended in Tween 80 (1% aqueous solution) and administered i.p. as a single injection at a dose of 10 mL/kg. On each day of experimentation, fresh solutions were prepared. […]

[5] = target: T2, Cav1.2 (h) calcium ion channel (Homo sapiens, UniProt Q13936); assay: Cav1.2 cell-based antagonist calcium flux assay; details: HEK293, human recombinant HEK-293 cell, read-out: % inhibition of control agonist response
T2 construct: Eurofins (contract assay)
Procedure: (§5) Importantly, sodium or calcium conductance is often associated with the pathophysiology of epilepsy as well as neuropathic pain.[46]−[50] Therefore, both sodium and calcium ion channels are well-established molecular targets for structurally diverse ASMs such as LCS, lamotrigine, carbamazepine, oxcarbazepine, etc.[51] Consequently, we carried out binding and/or functional studies toward the sodium channel (site 2) and calcium Cav1.2 channel at high concentrations (100 μM) of 26 and 28 (Table 5). […] Next, 26 and 28 due to the presence of the phenylpiperazine moiety, which is a well-recognized pharmacophore for serotoninergic receptor (5-HTxR) ligands,[52] were evaluated for their influence on 5-HT2CR, where stimulation plays a key role for the antiseizure activity of lorcaserin (one of the newest ASMs).[6]
as §1, §2
Cav1.2 (L-type) (h) calcium ion channel cell-based antagonist calcium flux assay […]
as §3, §4

[6] = target: CYP3A4 (Homo sapiens, UniProt P08684); details: 1 μM
Sequence of CYP3A4 (P08684 whole entry): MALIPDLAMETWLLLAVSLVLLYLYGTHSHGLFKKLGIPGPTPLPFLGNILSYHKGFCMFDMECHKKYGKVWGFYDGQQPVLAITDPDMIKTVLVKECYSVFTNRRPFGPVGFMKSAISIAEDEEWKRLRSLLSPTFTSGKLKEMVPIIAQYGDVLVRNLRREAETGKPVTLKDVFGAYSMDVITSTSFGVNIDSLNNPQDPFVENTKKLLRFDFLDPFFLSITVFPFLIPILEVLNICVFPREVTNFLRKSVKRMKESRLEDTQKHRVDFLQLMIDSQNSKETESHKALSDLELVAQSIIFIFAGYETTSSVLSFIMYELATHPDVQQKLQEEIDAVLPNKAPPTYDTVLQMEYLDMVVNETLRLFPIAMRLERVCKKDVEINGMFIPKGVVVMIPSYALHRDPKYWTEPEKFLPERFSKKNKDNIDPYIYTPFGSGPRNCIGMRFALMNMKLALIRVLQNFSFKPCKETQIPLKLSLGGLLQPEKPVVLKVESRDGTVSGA

[7] = system: HepG2 cell line; assay: HepG2 cell viability (hepatotoxicity); type: cell-based, human; details: for cell survival: HepG2, 100 μM; for concentration from which a statistically significant decrease of cell viability was observed: HepG2, 48 h
Procedure: (§6) The in vitro safety tests were performed with the use of a hepatoma HepG2 cell line to estimate the hepatotoxic potential of the tested compounds.

[8] = HepG2 cell viability (hepatotoxicity); type: cell-based, human; details: human, HepG2 hepatoma cells; at 1.56 μM, 48 h; read-out: HepG2 viability (% of control ± SD)
Procedure: as §6

[9] = target: 5-HT2C (h) (Homo sapiens, UniProt P28335); assay: 5-HT2C agonist effect functional assay; type: cell-based; details: HEK293, human recombinant HEK-293 cell, read-out: % inhibition of control agonist response (5-HT2C agonist effect)
Sequence of 5-HT2C (h) (P28335 33-458): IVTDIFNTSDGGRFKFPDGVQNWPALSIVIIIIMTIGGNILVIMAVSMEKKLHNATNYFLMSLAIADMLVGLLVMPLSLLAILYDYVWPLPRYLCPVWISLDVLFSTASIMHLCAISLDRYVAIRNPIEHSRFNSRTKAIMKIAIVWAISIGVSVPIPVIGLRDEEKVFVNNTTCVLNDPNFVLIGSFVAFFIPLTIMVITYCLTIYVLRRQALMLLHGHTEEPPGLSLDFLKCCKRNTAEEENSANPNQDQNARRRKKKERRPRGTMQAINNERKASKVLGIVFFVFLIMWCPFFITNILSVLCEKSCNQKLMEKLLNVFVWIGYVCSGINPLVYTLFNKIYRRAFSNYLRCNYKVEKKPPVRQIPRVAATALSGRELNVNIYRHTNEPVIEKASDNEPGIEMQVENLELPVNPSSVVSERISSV
Procedure: as §5, §1, §2
5-HT2C (agonist effect)
as §3, §4

[10] = system: HSA and AGP; assay: in vitro; details: human, plasma

inhibition at 10 µM [1] [%]	PAMPA—Pe ± SD [2]	Papp [2] [×10⁻⁶ cm/s]	CYP2D6 activity (% of control ± SD) [3] [%]	CYP3A4 activity (% of control ± SD) [6] [%]	inhibition at 10 µM [9] [%]	fraction unbound [10]	Structure (SMILES)	ED50 [4] [mg/kg]	inhibition at 100 µM [5] [%]	cell survival [7]	concentration from which a statistically significant decrease of cell viability was observed [7] [µM]	viability at 48 h, 1.56 µM [8] [%]
6.5	5.95 10^–6 cm/s	5.95 ± 0.51	115.0 ± 4.5	91.3 ± 12.7	0.1	0.17	CC(=O)NC(C)C(=O)N1CCN(c2cccc(OC(F)(F)F)c2)CC1 (stereo not drawn) [Compound 28, N-(1-oxo-1-(4-(3-(Trifluoromethoxy)phenyl)piperazin-1-yl)propan-2-yl)acetamide]	29.5	-7.9	approximately 40%	25	88.2 ± 16.1
-4.9	4.51 10^–6 cm/s	4.51 ± 0.61	122.8 ± 11.7	114.1 ± 8.7	0.5	0.214	CC(=O)NC(C)C(=O)N1CCN(c2cccc(C(F)(F)F)c2)CC1 (stereo not drawn) [Compound 26, N-(1-oxo-1-(4-(3-(Trifluoromethyl)phenyl)piperazin-1-yl)propan-2-yl)acetamide]	29.9	7	approximately 40%	12.5	104 ± 8.8
